# From US8173635B2, “Kinase inhibitors” (Vertex Pharmaceuticals Incorporated, priority 2007, dated 2012)
# What was measured:
# Format in all cases: biochemical
# PKC theta kinase = PKC theta kinase (Homo sapiens, UniProt Q04759); assay: PKC theta kinase inhibition, coupled-enzyme NADH absorbance assay (Ki); settings: 240 μM ATP, 18 nM PKC theta, 30° C.; read-out: Ki PKC theta
# Method: (§1) An assay buffer solution was prepared which consisted of 100 mM HEPES (pH 7.5), 10 mM MgCl2, 25 mM NaCl, 0.1 mM EDTA and 0.01% Brij. […] To 60 μL of this enzyme buffer, in a 384 well plate, was added 2 μL of VRT stock solution in DMSO. The mixture was allowed to equilibrate for 10 mins at 30° C. […] Ki values were calculated from initial rate data by non-linear regression using the Prism software package (Prism 4.0a, Graphpad Software, San Diego, Calif.).
# PKC delta kinase = PKC delta kinase (Homo sapiens, UniProt Q05655); assay: PKC delta kinase inhibition, coupled-enzyme NADH absorbance assay (Ki); settings: 150 μM ATP, 46 nM PKC delta, 30° C.; read-out: Ki PKC delta
# Method: as §1, with “To 16” for “To 60”, “added 1” for “added 2”
# PKC alpha kinase = PKC alpha kinase (Homo sapiens, UniProt P17252); assay: PKC alpha kinase inhibition, coupled-enzyme NADH absorbance assay (Ki); settings: 130 μM ATP, 4.5 nM PKC alpha, 30° C.; read-out: Ki PKC alpha
# Method: An assay buffer solution was prepared which consisted of 100 mM HEPES (pH 7.5), 10 mM MgCl2, 25 mM NaCl, 0.1 mM EDTA, 100 μM CaCl2 and 0.01% Brij. […] To 16 μL of this enzyme buffer, in a 384 well plate, was added 1 μL of VRT stock solution in DMSO. The mixture was allowed to equilibrate for 10 mins at 30° C. The enzyme reaction was initiated by the addition of 16 μL stock ATP solution prepared in assay buffer to a final assay concentration of 130 μM. Initial rate data was determined from the rate of change of absorbance at 340 nm (corresponding to stoichiometric consumption of NADH) using a Molecular Devices Spectramax plate reader (Sunnyvale, Calif.) over 15 mins at 30° C. […] Ki values were calculated from initial rate data by non-linear regression using the Prism software package (Prism 4.0a, Graphpad Software, San Diego, Calif.).
# Chain of PKC theta kinase (Q04759 whole entry): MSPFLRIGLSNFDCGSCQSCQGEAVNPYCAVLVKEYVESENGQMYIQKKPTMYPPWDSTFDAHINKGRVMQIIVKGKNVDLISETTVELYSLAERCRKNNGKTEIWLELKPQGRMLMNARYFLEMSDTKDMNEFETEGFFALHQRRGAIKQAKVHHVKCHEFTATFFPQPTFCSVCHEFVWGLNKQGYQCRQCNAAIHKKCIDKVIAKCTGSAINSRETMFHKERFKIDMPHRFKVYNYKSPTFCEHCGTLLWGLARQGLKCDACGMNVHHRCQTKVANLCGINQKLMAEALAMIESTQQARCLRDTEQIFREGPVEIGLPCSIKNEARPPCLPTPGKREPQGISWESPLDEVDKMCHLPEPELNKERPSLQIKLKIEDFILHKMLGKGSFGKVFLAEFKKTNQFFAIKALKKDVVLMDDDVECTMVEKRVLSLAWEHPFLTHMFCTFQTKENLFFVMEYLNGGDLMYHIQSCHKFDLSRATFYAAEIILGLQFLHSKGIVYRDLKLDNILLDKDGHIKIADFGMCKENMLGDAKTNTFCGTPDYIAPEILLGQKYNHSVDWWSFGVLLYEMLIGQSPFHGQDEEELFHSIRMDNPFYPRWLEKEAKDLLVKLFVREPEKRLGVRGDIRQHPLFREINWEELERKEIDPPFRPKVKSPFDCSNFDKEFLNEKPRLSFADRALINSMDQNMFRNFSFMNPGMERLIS
# Chain of PKC delta kinase (Q05655 whole entry): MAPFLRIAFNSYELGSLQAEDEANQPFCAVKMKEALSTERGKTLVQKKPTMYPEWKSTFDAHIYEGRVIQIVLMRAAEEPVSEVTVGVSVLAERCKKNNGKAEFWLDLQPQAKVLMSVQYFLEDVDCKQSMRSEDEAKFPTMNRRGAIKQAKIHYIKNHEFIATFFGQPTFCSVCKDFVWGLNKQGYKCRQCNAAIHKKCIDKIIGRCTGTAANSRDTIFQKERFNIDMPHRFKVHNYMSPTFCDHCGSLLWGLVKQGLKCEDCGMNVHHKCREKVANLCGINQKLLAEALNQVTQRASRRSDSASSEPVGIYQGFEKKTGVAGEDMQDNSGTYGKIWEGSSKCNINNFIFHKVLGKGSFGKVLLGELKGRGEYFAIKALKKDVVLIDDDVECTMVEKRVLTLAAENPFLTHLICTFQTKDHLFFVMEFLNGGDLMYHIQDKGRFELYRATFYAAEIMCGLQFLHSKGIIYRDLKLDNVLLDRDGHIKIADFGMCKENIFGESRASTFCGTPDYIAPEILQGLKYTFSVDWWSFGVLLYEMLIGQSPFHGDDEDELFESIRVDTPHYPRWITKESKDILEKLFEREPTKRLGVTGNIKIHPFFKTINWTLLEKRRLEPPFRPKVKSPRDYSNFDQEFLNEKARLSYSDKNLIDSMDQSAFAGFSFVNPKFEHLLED
Structure (SMILES),Ki (PKC theta kinase) [nM],Ki (PKC delta kinase) [nM],Ki (PKC alpha kinase) [nM]
CC#CC1(c2cc(C)cc(-c3ccnc4[nH]nc(C(F)(F)F)c34)c2)CNC(=O)O1 (stereo not drawn) [Compound 295],> 700,> 1200,> 1200
N#CC1(c2cccc(-c3ccnc4[nH]ncc34)c2)CCCC1 [Compound 74],< 500,< 2800,< 2800
CCC(C)(C#N)c1cc(C)cc(-c2ccnc3[nH]ncc23)c1 (stereo not drawn) [Compound 89],< 500,< 2800,< 2800
"CCC(C)(CN(C)C)c1cccc(-c2ccnc3[nH]ncc23)c1 (stereo not drawn) [Compound 138, 2-(3-(1H-pyrazolo[3,4-b]pyridin-4-yl)phenyl)-N,N,2-trimethylbutan-1-amine]",< 500,< 2800,< 2800
CCC(C)(CN)c1cc(CC(F)(F)F)cc(-c2ccnc3[nH]ncc23)c1 (stereo not drawn) [Compound 163],< 500,> 2000,> 1200
COCCC(C)(C#N)c1cccc(-c2ccnc3[nH]ncc23)c1 (stereo not drawn) [Compound 96],< 2800,> 2800,> 2800
NCC1(c2cc(F)cc(-c3ccnc4[nH]nc(Br)c34)c2)CCC1 [Compound 261],< 50,< 50,< 50
CCC(C)(C#N)c1cc(-c2ccnc3[nH]ncc23)cc(C(C)F)c1 (stereo not drawn) [Compound 105],< 500,> 2000,< 2800
N#CC(c1cccc(-c2ccnc3[nH]ncc23)c1)N1CCOCC1 (stereo not drawn) [Compound 320],> 700,> 1200,> 1200
"Cc1cnc2[nH]ncc2c1-c1cccc(C(C)(C)CN)c1 [Compound 237, 2-methyl-2-(3-(5-methyl-1H-pyrazolo[3,4-b]pyridin-4-yl)phenyl)propan-1-amine]",< 2800,< 2800,< 500
C=Cc1cc(-c2ccnc3[nH]ncc23)cc(C(C)(C)C#N)c1 [Compound 55],< 500,< 2800,< 2800
C=Cc1cc(-c2ccnc3[nH]ncc23)cc(C(C)(C)CN)c1 [Compound 36],< 500,< 2800,< 2800
C=CCC1(c2cc(C)cc(-c3ccnc4[nH]ncc34)c2)CNC(=O)O1 (stereo not drawn) [Compound 325],< 500,> 1200,< 500
CC(C)(C#N)c1cc(-c2ccnc3[nH]ncc23)cc(N2CCC2)c1 [Compound 11],< 500,> 2800,> 2800
NCC1(c2cccc(-c3ccnc4[nH]nc(Cl)c34)c2)CCOCC1 [Compound 206],< 50,< 500,< 500
CCc1n[nH]c2nccc(-c3cccc(C4(CN)COC4)c3)c12 [Compound 306],< 50,< 500,> 1200
C/C=C\c1cc(-c2ccnc3[nH]ncc23)cc(C(C)(CC)CN)c1 (stereo not drawn) [Compound 143],< 500,< 500,< 2800
COCC(C)(CN)c1cccc(-c2ccnc3[nH]ncc23)c1 (stereo not drawn) [Compound 150],< 50,< 500,< 2800
CC(C)(N)CCc1cc(-c2ccnc3[nH]nc(C(F)(F)F)c23)cc(C2(C#N)CC2)c1 [Compound 317],< 50,> 1200,> 1200
Cc1cc(-c2ccnc3[nH]ncc23)cc(C2(Cc3ccccc3)CNC(=O)O2)c1 (stereo not drawn) [Compound 327],< 500,> 1200,< 2800
NCC1(c2cccc(-c3ccnc4[nH]ncc34)c2)CC1 [Compound 153],< 50,< 2800,< 2800
N#CC1(c2cc(-c3ccnc4[nH]nc(C(F)(F)F)c34)cc(C(F)(F)CN)c2)CC1 [Compound 311],< 50,< 500,< 500
C1=C(c2cccc(-c3ccnc4[nH]ncc34)c2)CNC1 [Compound 231],< 500,< 2800,< 2800
CCSc1cc(-c2ccnc3[nH]ncc23)cc(C(C)(C#N)CC)c1 (stereo not drawn) [Compound 102],< 500,> 2000,< 2800
"CCC(C)(CN)c1cccc(-c2ccnc3[nH]nc(C)c23)c1 (stereo not drawn) [Compound 212, 2-methyl-2-(3-(3-methyl-1H-pyrazolo[3,4-b]pyridin-4-yl)phenyl)butan-1-amine]",< 50,< 50,< 50
Cc1cc(-c2ccnc3[nH]ncc23)cc(C(N)C2CC2(F)F)c1 (stereo not drawn) [Compound 250],< 500,< 2800,< 500
CC(C)C(C)(CN)c1cccc(-c2ccnc3[nH]ncc23)c1 (stereo not drawn) [Compound 48],< 50,< 500,< 500

# Now from value to compound:
Ki (PKC theta kinase) [nM],Ki (PKC delta kinase) [nM],Ki (PKC alpha kinase) [nM],Structure (SMILES)
< 50,< 500,< 500,CCc1n[nH]c2nccc(-c3cc(C)cc(C4(CN)CC4)c3)c12 [Compound 265]
< 50,< 2800,< 2800,CNCC(F)(F)c1cc(-c2ccnc3[nH]ncc23)cc(C2(C#N)CC2)c1 [Compound 123]
< 50,< 500,< 500,NCC1(c2cc(F)cc(-c3ccnc4[nH]nc(Cl)c34)c2)CCOCC1 [Compound 257]
< 50,< 500,< 500,C#CCC(CC)(CN)c1cccc(-c2ccnc3[nH]ncc23)c1 (stereo not drawn) [Compound 178]
< 50,< 500,< 500,Cc1cc(-c2ccnc3[nH]nc(Cl)c23)cc(C2(CN)CCOCC2)c1 [Compound 209]
< 50,< 50,< 50,CC#CC[C@](C)(CN)c1cccc(-c2ccnc3[nH]ncc23)c1 [Compound 185]
< 50,< 500,< 500,FC(F)C1(c2cccc(-c3ccnc4[nH]ncc34)c2)CCNC1 (stereo not drawn) [Compound 201]
< 50,< 500,< 2800,COCCC(CN)c1cccc(-c2ccnc3[nH]nc(C(F)(F)F)c23)c1 (stereo not drawn) [Compound 284]
< 50,< 500,< 2800,CCC(O)(c1cc(C)cc(-c2ccnc3[nH]nc(C(F)(F)F)c23)c1)C1CNC1 (stereo not drawn) [Compound 314]
< 50,> 2800,< 2800,CCc1cc(-c2ccnc3[nH]ncc23)cc(C(C)(C)C#N)c1 [Compound 62]
< 50,< 50,< 500,CCC(CN)c1cccc(-c2ccnc3[nH]nc(C(F)(F)F)c23)c1 (stereo not drawn) [Compound 281]
< 50,< 500,< 500,COCCC(C)(CN)c1cccc(-c2ccnc3[nH]nc(C(F)(F)F)c23)c1 (stereo not drawn) [Compound 285]
< 50,< 500,< 500,CCC(C)(CN)c1cc(CCCO)cc(-c2ccnc3[nH]nc(Cl)c23)c1 (stereo not drawn) [Compound 208]
< 50,< 500,< 500,CCC(C)(CN)c1cc(C)cc(-c2ccnc3[nH]ncc23)c1 (stereo not drawn) [Compound 144]
< 50,> 2000,> 1200,N#CC1(c2cc(CCO)cc(-c3ccnc4[nH]ncc34)c2)CC1 [Compound 114]
< 50,< 2800,< 500,N#C[C@]1(c2cccc(-c3ccnc4[nH]ncc34)c2)C[C@@H](N)C1 [Compound 249]
< 50,< 500,< 500,C/C=C\C1(c2cccc(-c3ccnc4[nH]ncc34)c2)CCNC1 (stereo not drawn) [Compound 197]
